Reference: ChEMBL document CHEMBL1201862, “PubChem BioAssay data set” (2004)
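Step 1: Grow cells in 96-well plates. Step 2: Expose to compound for 48 hours at 5 concentrations. Step 3: Interpolate endpoints linearly; if unreached, use highest concentration. Abbreviation: GI50, concentration required for 50% inhibition of growth.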 Active and inactive are the calls of the source. Cut-off read from the data, not from the text of the source: active = GI50 up to about 1.1 µM and inactive = higher.

What was measured:
Assay in all cases: inhibition of tumour cell growth, NCI panel, 48 h
MOLT-4 = test system: MOLT-4
CCRF-CEM = test system: CCRF-CEM
HL-60 = test system: HL-60
A498 = test system: A498
MDA-MB-435 = test system: MDA-MB-435
KM12 = test system: KM12
DU-145 = test system: DU-145
OVCAR-5 = test system: OVCAR-5
NCI-H522 = test system: NCI-H522
IGROV-1 = test system: IGROV-1
HOP-62 = test system: HOP-62
NCI-H460 = test system: NCI-H460
SK-MEL-5 = test system: SK-MEL-5
M14 = test system: M14
SR = test system: SR
HCT-116 = test system: HCT-116
RXF 393 = test system: RXF 393
SF-539 = test system: SF-539
SK-OV-3 = test system: SK-OV-3
EKVX = test system: EKVX

| SMILES | GI50 (MOLT-4) | GI50 (CCRF-CEM) | GI50 (HL-60) | GI50 (A498) | GI50 (MDA-MB-435) | GI50 (KM12) | GI50 (DU-145) | GI50 (OVCAR-5) | GI50 (NCI-H522) | GI50 (IGROV-1) | GI50 (HOP-62) | GI50 (NCI-H460) | GI50 (SK-MEL-5) | GI50 (M14) | GI50 (SR) | GI50 (HCT-116) | GI50 (RXF 393) | GI50 (SF-539) | GI50 (SK-OV-3) | GI50 (EKVX) |
| --- | --- | --- | --- | --- | --- | --- | --- | --- | --- | --- | --- | --- | --- | --- | --- | --- | --- | --- | --- | --- |
| c1ccc2c3c(c(N4CCOCC4)nc2c1)CCCC3 | 30 µM (inactive) | 31.9 µM (inactive) | 14.2 µM (inactive) | 24 µM (inactive) | 48.6 µM (inactive) | 38.2 µM (inactive) | 33.3 µM (inactive) | 15.1 µM (inactive) | 29.7 µM (inactive) | > 100 µM (inactive) | 92.5 µM (inactive) | 34.7 µM (inactive) | 20.2 µM (inactive) | 50.7 µM (inactive) | 46.8 µM (inactive) | 40.6 µM (inactive) | 19.8 µM (inactive) | 20.8 µM (inactive) | 86.1 µM (inactive) | 12.5 µM (inactive) |
| CN(C)c1ccc(C=c2c3ccccc3n3c2c2c([n+]3C)CCCC2)cc1 | 0.116 µM (active) | 0.0465 µM (active) | 0.075 µM (active) | 0.247 µM (active) | 0.109 µM (active) | 0.0681 µM (active) | 0.245 µM (active) | 0.463 µM (active) | 0.161 µM (active) | 0.138 µM (active) | 0.165 µM (active) | 0.11 µM (active) | 0.0687 µM (active) | 0.208 µM (active) | 0.0233 µM (active) | 0.0537 µM (active) | 0.106 µM (active) | 0.165 µM (active) | 0.32 µM (active) | 0.0227 µM (active) |
| CCOc1cnc(C(O)(c2ccccc2)c2ccccc2)o1 | > 100 µM (inactive) | > 100 µM (inactive) | > 100 µM (inactive) | > 100 µM (inactive) | > 100 µM (inactive) | > 100 µM (inactive) | > 100 µM (inactive) | > 100 µM (inactive) | > 100 µM (inactive) | > 100 µM (inactive) | > 100 µM (inactive) | > 100 µM (inactive) | > 100 µM (inactive) | > 100 µM (inactive) | > 100 µM (inactive) | > 100 µM (inactive) | > 100 µM (inactive) | > 100 µM (inactive) | > 100 µM (inactive) | > 100 µM (inactive) |
| COc1ccc2nc(C)cc(NCCCCCCCCCNc3cc(C)nc4ccc(OC)cc34)c2c1 | 1.29 µM (inactive) | 1.27 µM (inactive) | 0.824 µM (active) | 13.7 µM (inactive) | 1.58 µM (inactive) | 1.26 µM (inactive) | 6.07 µM (inactive) | 2.55 µM (inactive) | 0.834 µM (active) | 2.99 µM (inactive) | 2.26 µM (inactive) | 0.396 µM (active) | 1.71 µM (inactive) | 1.95 µM (inactive) | 0.486 µM (active) | 0.279 µM (active) | 2.05 µM (inactive) | 1.27 µM (inactive) | 8.79 µM (inactive) | 3.4 µM (inactive) |
| COc1ccccc1NC(=O)C(C#N)=C(SC)SC | > 100 µM (inactive) | 89.5 µM (inactive) | > 100 µM (inactive) | > 100 µM (inactive) | > 100 µM (inactive) | 6.78 µM (inactive) | > 100 µM (inactive) | > 100 µM (inactive) | > 100 µM (inactive) | 51.9 µM (inactive) | > 100 µM (inactive) | 94.2 µM (inactive) | > 100 µM (inactive) | > 100 µM (inactive) | > 100 µM (inactive) | > 100 µM (inactive) | > 100 µM (inactive) | > 100 µM (inactive) | > 100 µM (inactive) | > 100 µM (inactive) |
| CC(C)=CCC[C@@H](C)C1=C(O)C(=O)C(C)=C(Nc2ccccc2Cl)C1=O | 5 µM (inactive) | 4.41 µM (inactive) | 1.22 µM (inactive) | 17.5 µM (inactive) | 23.9 µM (inactive) | 10.8 µM (inactive) | 36.2 µM (inactive) | 45.7 µM (inactive) | 6.25 µM (inactive) | 5.81 µM (inactive) | 11.6 µM (inactive) | 14.1 µM (inactive) | 16.8 µM (inactive) | 21.4 µM (inactive) | 11.5 µM (inactive) | 15 µM (inactive) | 22.3 µM (inactive) | 9.31 µM (inactive) | 27.1 µM (inactive) | 19 µM (inactive) |
| CC(C)CCC/C(CBr)=C(\Cl)CCl | 0.653 µM (active) | 0.123 µM (active) | 0.103 µM (active) | 20.7 µM (inactive) | 2.36 µM (inactive) | 2.15 µM (inactive) | 5.52 µM (inactive) | 15.1 µM (inactive) | 0.15 µM (active) | 1.6 µM (inactive) | 8.02 µM (inactive) | 5.05 µM (inactive) | 1.95 µM (inactive) | 1.93 µM (inactive) | 0.746 µM (active) | 2.69 µM (inactive) | 1.57 µM (inactive) | 10.4 µM (inactive) | 7.82 µM (inactive) | 16.6 µM (inactive) |
| CC(C)(C)/N=c1/n(C(C)(C)C)oc(=O)n1-c1ccccc1 | > 50 µM (inactive) | > 50 µM (inactive) | 41.1 µM (inactive) | > 50 µM (inactive) | > 50 µM (inactive) | > 50 µM (inactive) | > 50 µM (inactive) | > 50 µM (inactive) | > 50 µM (inactive) | > 50 µM (inactive) | > 50 µM (inactive) | > 50 µM (inactive) | > 50 µM (inactive) | > 50 µM (inactive) | > 50 µM (inactive) | > 50 µM (inactive) | > 50 µM (inactive) | > 50 µM (inactive) | > 50 µM (inactive) | > 50 µM (inactive) |
| O=Cc1ccc2ccocc1-2 | > 100 µM (inactive) | > 100 µM (inactive) | > 100 µM (inactive) | > 100 µM (inactive) | > 100 µM (inactive) | > 100 µM (inactive) | > 100 µM (inactive) | > 100 µM (inactive) | > 100 µM (inactive) | > 100 µM (inactive) | > 100 µM (inactive) | > 100 µM (inactive) | > 100 µM (inactive) | > 100 µM (inactive) | > 100 µM (inactive) | > 100 µM (inactive) | > 100 µM (inactive) | > 100 µM (inactive) | > 100 µM (inactive) | > 100 µM (inactive) |
| C[n+]1c(-c2ccc(/C=C/C=N\NC(=O)c3ccc(C(=O)N/N=C\C=C\c4ccc(-c5cn6ccccc6[n+]5C)cc4)cc3)cc2)cn2ccccc21 | 43.6 µM (inactive) | 23.9 µM (inactive) | 30.2 µM (inactive) | > 100 µM (inactive) | > 100 µM (inactive) | 39.1 µM (inactive) | > 54.3 µM (inactive) | > 100 µM (inactive) | > 100 µM (inactive) | > 68.5 µM (inactive) | > 100 µM (inactive) | > 100 µM (inactive) | > 84.5 µM (inactive) | > 100 µM (inactive) | 19.9 µM (inactive) | > 100 µM (inactive) | > 96.2 µM (inactive) | > 100 µM (inactive) | > 100 µM (inactive) | > 100 µM (inactive) |
